Measurements as given in paper PMC5268738, “A sequential multi-target Mps1 phosphorylation cascade promotes spindle checkpoint signaling” (eLife, 2017).

What was measured:
[1] = tested on: Bub1 S459 phosphorylation in HeLa cells; conditions: nocodazole and MG132; reversine 1 µM
Protocol: HeLa Tet-On cells were initially purchased from Clontech (Mountain View, CA), and were cultured in Dulbecco’s Modified Eagle Medium (DMEM, Invitrogen, Carlsbad, CA) supplemented with 10% fetal bovine serum and 2 mM L-glutamine. The cells were authenticated by genome sequencing and metaphase chromosome spread, and were routinely checked by 4',6-diamidino-2-phenylindole (DAPI) staining to ascertain that they were free of mycoplasma contamination. For G1/S synchronization, cells were treated with 2 mM thymidine (Sigma, St. Louis, MO) for 14–16 hr. For mitotic arrest, cells were treated with 330 nM or 1 µM nocodazole (Sigma) or 100 nM taxol (Sigma) for 12–14 hr. Other chemicals used in this study were: RO3306 (Sigma) at 20 µM, BI 2536 (Selleck Chemicals, Houston, TX) at 1 µM, MG132 (Selleck Chemicals) at 10 µM, okadaic acid (LC lab, Woburn, MA) at 500 nM, and reversine (Cayman Chemical, Ann Arbor, MI) at 1 µM.

APC/C^Cdc20 = APC/C^Cdc20 inhibition by MCC components (securin ubiquitination assay); type: biochemical, Xenopus APC/C, human Cdc20; conditions: Bub1–Mad1 mixture, Cdc20^ΔN60, Mad2^Mono, BubR1^N; reversine 10 μM where used
[2] = tested on: N-terminal fragment of Cdc20 (residues 1–170, Cdc20^N); assay: in vitro pull-down of Mps1-treated Mad1^E–Mad2 by Cdc20^N beads; type: binding, human; conditions: Ni^2+ beads with Cdc20^N170-His6; Mad1 pre-treated with kinase domain of Mps1; anti-Mad1 blot
Protocol: Expression of Cdc20-His6 proteins containing the N-terminal regions of Cdc20 was induced by 1 mM isopropyl β-D-1-thiogalactopyranoside (IPTG) at 37 °C for 6 h. Harvested pellets were lysed in denaturing lysis buffer (100 mM NaH2PO4, 10 mM Tris-HCl, pH 8.0, 8 M Urea), and incubated overnight by gentle rocking at room temperature. After centrifugation, the supernatants were incubated with pre-equilibrated Ni^2+-NTA beads (Qiagen). Protein-bound beads were washed with 15 volumes of denaturing wash buffer (100 mM NaH2PO4, 10 mM Tris-HCl, pH 6.3, 8 M Urea). The proteins were then eluted with denaturing elution buffer (100 mM NaH2PO4, 10 mM Tris-HCl, pH 4.5, 8 M Urea). The eluted proteins were then dialyzed into the storage buffer (50 mM Tris, pH 8.0, 200 mM NaCl, 5% glycerol, 1 mM β-mercaptoethanol). […]
For kinase assays, 1 μM Cdc20^ΔN60, 40 μM Mad1^E–Mad2, or 400 nM Bub1^ΔK–Bub3 was incubated with 40 nM Bub1, 500 nM Mps1, and/or 50 nM Cdk1–Cyclin B1 at room temperature for 30 min in the kinase buffer (25 mM Tris-HCl, pH 7.7, 100 mM NaCl, 10 mM MgCl2, 5 mM NaF, 20 mM β-glycerophosphate, 0.1 mM Na3VO4 and 1 mM DTT) supplemented with 1 mM ATP. The reaction mixtures were stopped with the appropriate kinase inhibitors for further protein-binding assays, or quenched with the SDS loading buffer and analyzed by Coomassie blue staining or Western blotting. […]

c1nc2nc(Nc3ccc(N4CCOCC4)cc3)nc(NC3CCCCC3)c2[nH]1 [reversine, reference compound]
Bub1 S459 phosphorylation in mitosis (in words) [1]: reduced
APC/C^Cdc20 inhibition by the MCC mixture with Bub1–Mad1 mixture (in words) (APC/C^Cdc20): greatly weakened APC/C^Cdc20 inhibition by the MCC mixture
binding of Mps1-treated Mad1^E–Mad2 to Cdc20^N (in words) [2]: greatly reduced this interaction
